Experimental data as given in paper PMC10218704, “A Novel Blood–Brain Barrier-Penetrating and Vascular-Targeting Chimeric Peptide Inhibits Glioma Angiogenesis” (International Journal of Molecular Sciences, 2023).

Tests used:
[1] = test system: VEGFR-2; assay: Western blot, phosphorylation of VEGFR-2; type: cell-based, human; settings: 320 μmol/L; 90 min; VEGF-A165 30 ng/mL; HUVECs; n = 3
Description: (§1) For Western blotting analysis, HUVECs were seeded into 6-well culture plates at 3 × 10^5 cells/well and incubated overnight. […] Two control groups (F-12K medium in the absence or presence of VEGF-A165) were set. The cells were washed with cold PBS and lysed with lysis buffer (protease and phosphatase inhibitors) on the ice for 30 min, and then centrifuged at 4 °C for 15 min at 14,000 r/min. The supernatant was collected, and its total protein concentration was determined by the BCA protein assay kit. Equal amounts of proteins were separated by 10% SDS-PAGE gels and transferred to polyvinylidene difluoride (PVDF) membranes. After blocking with 5% non-fat milk for 1 h, the membranes were incubated with specific antibodies at 4 °C overnight. Then, the membranes were washed with TBST (Tris-Buffered Saline with 0.1% Tween 20) and incubated with horseradish peroxidase (HRP)-conjugated secondary antibody for 1 h at room temperature. The proteins on the membranes were visualized with enhanced chemiluminescence agents.

[2] = test system: HUVECs; assay: Wound healing assay (cell migration); type: cell-based, human; settings: 160 μmol/L; VEGF-A165 30 ng/mL; at 24 h or 48 h after scratch; n = 3
Description: HUVECs were firstly seeded into 6-well culture plates (3 × 10^5 cells/well). Following overnight incubation, the monolayer HUVECs were scraped by pipette tips of 200 μL and washed by cold PBS. […] The cells were incubated for another 48 h. Images were captured at 0 h, 24 h, and 48 h using an inverted microscope. The cell migration rate was counted by the ImageJ software.

[3] = test system: PLC-γ; assay: Western blot, phosphorylation of PLC-γ; type: cell-based, human; settings: 320 μmol/L, 90 min, VEGF-A165 30 ng/mL, HUVECs, vs control, AT7, TAT, n = 3
Description: as §1

[4] = test system: glioma blood vessels (CD31); assay: CD31 immunohistochemical staining of glioma tissue (blood vessel density); type: in vivo, nude mice; settings: 20 mg/kg/day i.v., 11 days; tissue at day 15; n = 3
Description: (§2) The orthotopic U87-mCherry-luc glioma-bearing nude mice were randomly assigned to 6 groups (n = 5) according to the bioluminescence intensity of glioma measured on day 4. […] The bioluminescence intensity was measured on days 4, 7, 11, and 14, respectively. Nude mice were weighed daily. On day 15, the mice were sacrificed, and the glioma-bearing brains were harvested. The brain tissues were fixed with 4.0% paraformaldehyde, embedded in paraffin, and cut into slices. The TUNEL staining and CD31 immunohistochemical staining were conducted according to standard histological procedures.

[5] = test system: AKT; assay: Western blot, phosphorylation of AKT; type: cell-based, human; settings: 320 μmol/L, 90 min, VEGF-A165 30 ng/mL, HUVECs, vs control, AT7, TAT, n = 3
Description: as §1

[6] = test system: HUVECs; assay: Tube formation assay on Matrigel; type: cell-based, human; settings: 160 μmol/L, VEGF-A165 30 ng/mL, 6 h, n = 3
Description: Matrigel was added to 96-well plates with 60 min of incubation at 37 °C for solidification. […] The tubular structures were observed under an inverted microscope and the total branching lengths were calculated by the ImageJ V 1.8.0 software.

[7] = test system: U87-mCherry-luc glioma tissue; assay: TUNEL staining of glioma tissue; type: in vivo, nude mice; settings: 20 mg/kg/day i.v., 11 days; tissue at day 15; n = 3
Description: as §2

[8] = test system: VEGFR-2 and the above kinases (PLC-γ, ERK1/2, SRC, AKT, FAK); assay: Western blot, total expression levels; type: cell-based, human; settings: 320 μmol/L; 90 min; VEGF-A165 30 ng/mL; HUVECs; n = 3
Description: as §1

CC(C)C[C@H](NC(=O)[C@H](Cc1c[nH]c2ccccc12)NC(=O)[C@@H](NC(=O)[C@H](C)NC(=O)[C@H](CS)NC(=O)[C@H](CCCNC(=N)N)NC(=O)[C@H](CCCNC(=N)N)NC(=O)[C@H](CCCNC(=N)N)NC(=O)[C@H](CCC(N)=O)NC(=O)[C@H](CCCNC(=N)N)NC(=O)[C@H](CCCNC(=N)N)NC(=O)[C@H](CCCCN)NC(=O)[C@H](CCCCN)NC(=O)[C@@H](N)CCCNC(=N)N)[C@@H](C)O)C(=O)N1CCC[C@H]1C(=O)N1CCC[C@H]1C(=O)N[C@@H](CCCNC(=N)N)C(=O)O [TAT-AT7]
phosphorylation level of VEGFR-2 [1]: reduce the phosphorylation level of VEGFR-2
migration rate [2]: significantly lower than that of the control, AT7, TAT, and TAT+AT7 groups
phosphorylation level of PLC-γ [3]: significantly inhibited the phosphorylation level
blood vessel density (CD31) [4]: significantly lower than that in the other groups
phosphorylation level of AKT [5]: significantly inhibited the phosphorylation level
formation of tubular structures [6]: significantly inhibit the formation of tubular structures in HUVECs
total branch length of the tubular structure ([6]; vs AT7, TAT, and TAT+AT7 groups): significantly reduced
number of apoptotic cells (TUNEL) [7]: significantly higher than that in the saline, AT7, TAT, and TAT+AT7 groups
total expression levels of VEGFR-2 and the above kinases [8]: no significant effect on the total expression levels
